What follows are compounds tested against T1, α4β7 integrin interaction with MadCAM-1 (RPMI8866 cells) (Homo sapiens, UniProt P13612+P26010) (assay: α4β7 Integrin Cell Capture Assay). Conditions: capture of α4β7 integrin expressing RPMI8866 cells on recombinant MadCAM-1 extracellular domain-coated plate; 0.5 mM MnCl2.
T1 construct: α4β7 integrin expressing cells; endogenous in cells; host or cells: RPMI8866 cells
T1 sequence (P13612 34-1032): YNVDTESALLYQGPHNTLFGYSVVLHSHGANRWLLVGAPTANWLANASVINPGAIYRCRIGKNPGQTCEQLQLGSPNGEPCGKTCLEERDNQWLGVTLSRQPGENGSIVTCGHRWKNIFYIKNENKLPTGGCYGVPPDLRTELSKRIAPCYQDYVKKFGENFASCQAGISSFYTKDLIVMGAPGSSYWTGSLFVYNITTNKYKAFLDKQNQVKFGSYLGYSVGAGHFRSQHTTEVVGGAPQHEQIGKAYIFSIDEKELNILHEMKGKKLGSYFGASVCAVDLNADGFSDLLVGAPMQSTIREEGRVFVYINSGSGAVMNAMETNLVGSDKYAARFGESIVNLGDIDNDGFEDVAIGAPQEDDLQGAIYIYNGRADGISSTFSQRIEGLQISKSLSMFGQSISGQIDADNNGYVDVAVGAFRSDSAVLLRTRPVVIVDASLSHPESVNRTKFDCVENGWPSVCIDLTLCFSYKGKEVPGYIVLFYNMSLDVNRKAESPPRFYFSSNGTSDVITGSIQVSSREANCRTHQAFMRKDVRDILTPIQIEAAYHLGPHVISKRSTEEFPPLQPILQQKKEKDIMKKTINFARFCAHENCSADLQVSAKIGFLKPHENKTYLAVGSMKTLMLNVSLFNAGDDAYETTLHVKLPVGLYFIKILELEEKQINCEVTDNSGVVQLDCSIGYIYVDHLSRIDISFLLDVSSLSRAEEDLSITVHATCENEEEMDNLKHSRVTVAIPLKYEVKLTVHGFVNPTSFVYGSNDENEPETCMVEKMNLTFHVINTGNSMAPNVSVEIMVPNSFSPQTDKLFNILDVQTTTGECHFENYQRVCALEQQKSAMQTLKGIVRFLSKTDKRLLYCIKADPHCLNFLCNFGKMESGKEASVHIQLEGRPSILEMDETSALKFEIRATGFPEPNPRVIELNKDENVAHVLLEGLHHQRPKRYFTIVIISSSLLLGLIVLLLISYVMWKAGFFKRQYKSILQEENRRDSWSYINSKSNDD
T1 sequence (P26010 20-798): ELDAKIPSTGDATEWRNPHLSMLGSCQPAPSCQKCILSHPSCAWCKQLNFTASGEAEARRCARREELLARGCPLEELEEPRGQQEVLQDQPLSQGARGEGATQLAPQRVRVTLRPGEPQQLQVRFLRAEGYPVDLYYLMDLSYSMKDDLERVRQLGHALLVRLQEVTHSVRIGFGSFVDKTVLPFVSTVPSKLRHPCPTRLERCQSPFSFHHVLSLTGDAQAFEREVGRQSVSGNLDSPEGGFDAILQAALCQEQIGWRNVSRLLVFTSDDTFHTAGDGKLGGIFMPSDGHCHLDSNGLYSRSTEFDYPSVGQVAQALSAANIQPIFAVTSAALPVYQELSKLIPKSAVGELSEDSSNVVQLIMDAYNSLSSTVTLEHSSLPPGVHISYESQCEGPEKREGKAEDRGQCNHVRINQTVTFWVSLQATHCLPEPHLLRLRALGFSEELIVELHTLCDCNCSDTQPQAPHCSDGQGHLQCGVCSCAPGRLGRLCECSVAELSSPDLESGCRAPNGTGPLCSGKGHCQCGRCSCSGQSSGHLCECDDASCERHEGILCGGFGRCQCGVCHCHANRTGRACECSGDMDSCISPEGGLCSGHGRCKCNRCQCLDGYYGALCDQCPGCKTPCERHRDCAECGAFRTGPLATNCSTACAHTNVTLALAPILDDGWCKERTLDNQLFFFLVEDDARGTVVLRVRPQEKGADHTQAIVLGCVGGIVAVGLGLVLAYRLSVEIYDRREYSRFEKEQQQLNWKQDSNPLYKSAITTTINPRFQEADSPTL
Assay type: cell-based
In short: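 RPMI8866 cells (0.5×10^6 cells/mL in DMEM + 0.5% FBS + 0.5 mM MnCl2) preincubated with compound 1 h at 37 °C, then allowed to adhere 30 min at 37 °C to plates coated with MAdCAM-1 extracellular domain (1.0 μg/mL). Bound cells fixed with 2% glutaraldehyde, Hoechst-stained, imaged and counted; EC50 from cell count versus concentration.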

| EC50 [nM] | Compound |
| --- | --- |
| 67.7 | O=C(N[C@@H](Cc1ccc(-c2c(Cl)cc(F)cc2Cl)c2c1CCCO2)C(=O)O)c1c(Cl)cccc1Cl [Example 75, (S)-3-(8-(2,6-dichloro-4-fluorophenyl)chroman-5-yl)-2-(2,6-dichlorobenzamido)propanoic acid] |
| 0.55 | COc1ccc(C)nc1-c1ccc(C[C@H](NC(=O)c2c(F)cc(N3CCOC[C@@H]3C(F)(F)F)cc2F)C(=O)O)c2c1OCCC2 [Example 140] |
| 30.5 | COc1cc(F)c(F)cc1-c1ccc(C[C@H](NC(=O)c2c(Cl)cccc2Cl)C(=O)O)c2c1OCCC2 [Example 70, (S)-2-(2,6-dichlorobenzamido)-3-(8-(4,5-difluoro-2-methoxyphenyl)chroman-5-yl)propanoic acid] |
| 33.1 | O=C(N[C@@H](Cc1ccc(-c2c(Cl)cc(F)cc2Cl)c2c1[C@@H]1C[C@@H]1CO2)C(=O)O)c1c(F)cccc1F (single isomer, unassigned) [Example 79] |
| 267 | CN1CCCc2c(C[C@H](NC(=O)c3c(F)cccc3F)C(=O)O)ccc(-c3c(Cl)cc(F)cc3Cl)c21 [Example 102, (S)-3-(8-(2,6-dichloro-4-fluorophenyl)-1-methyl-1,2,3,4-tetrahydroquinolin-5-yl)-2-(2,6-difluorobenzamido)propanoic acid] |

Further lines, the compound ahead of its results:

| Compound | EC50 [nM] |
| --- | --- |
| Cc1c(-c2ccc(C[C@H](NC(=O)c3c(F)cc(N4CCOC[C@@H]4C(F)(F)F)cc3F)C(=O)O)c3c2COC3)c(=O)n(C)c(=O)n1C [Example 14, (S)-2-(2,6-difluoro-4-((R)-3-(trifluoromethyl)morpholino)benzamido)-3-(7-(1,3,6-trimethyl-2,4-dioxo-1,2,3,4-tetrahydropyrimidin-5-yl)-1,3-dihydroisobenzofuran-4-yl) propanoic acid] | 0.38 |
| Cc1cn(C)c(=O)c(-c2ccc(C[C@H](NC(=O)c3c(F)cc(N4CCOC[C@@H]4C(F)(F)F)cc3F)C(=O)O)c3c2OCCC3)n1 [Example 168] | 0.946 |
| Cc1c(C(F)(F)F)cn(C)c(=O)c1-c1ccc(C[C@H](NC(=O)c2c(F)cc(N3CCOC[C@@H]3C(F)(F)F)cc2F)C(=O)O)c2c1COC2 [Example 29, (S)-2-(2,6-difluoro-4-((R)-3-(trifluoromethyl)morpholino)benzamido)-3-(7-(1,4-dimethyl-2-oxo-5-(trifluoromethyl)-1,2-dihydropyridin-3-yl)-1,3-dihydroisobenzofuran-4-yl)propanoic acid] | 0.817 |
| O=C(N[C@@H](Cc1ccc(-c2ncccc2C(F)(F)F)c2c1CCCO2)C(=O)O)c1c(F)cc(N[C@H](c2ccccc2)C(F)(F)F)cc1F [Example 86, (S)-2-(2,6-difluoro-4-(((R)-2,2,2-trifluoro-1-phenylethyl)amino)benzamido)-3-(8-(3-(trifluoromethyl)pyridin-2-yl)chroman-5-yl)propanoic acid] | 3.34 |
| Cc1cc(C)n(C)c(=O)c1-c1ccc(C[C@H](NC(=O)c2c(F)cc(N[C@H](C)C(F)(F)F)cc2F)C(=O)O)c2c1OCCC2 [Example 53, (S)-2-(2,6-difluoro-4-(((R)-1,1,1-trifluoropropan-2-yl)amino)benzamido)-3-(8-(1,4,6-trimethyl-2-oxo-1,2-dihydropyridin-3-yl)chroman-5-yl)propanoic acid] | 3.28 |
| Cc1nc(-c2ccc(C[C@H](NC(=O)c3c(F)cccc3F)C(=O)O)c3c2OCCO3)c(C(F)(F)F)c2ccccc12 [Example 2, (S)-2-(2,6-difluorobenzamido)-3-(8-(1-methyl-4-(trifluoromethyl)isoquinolin-3-yl)-2,3-dihydrobenzo[b][1,4]dioxin-5-yl)propanoic acid] | 3.76 |
| Cc1cc(N2CCOC[C@@H]2C(F)(F)F)cc(F)c1C(=O)N[C@@H](Cc1ccc(-c2c(C)cc(C)n(C)c2=O)c2c1CCCO2)C(=O)O [Example 160] | 0.189 |
| Cc1cnc(-c2ccc(C[C@H](NC(=O)c3c(F)cc(N4CCOC[C@@H]4C(F)(F)F)cc3F)C(=O)O)c3c2COC3)nc1C [Example 28, (S)-2-(2,6-difluoro-4-((R)-3-(trifluoromethyl)morpholino)benzamido)-3-(7-(4,5-dimethylpyrimidin-2-yl)-1,3-dihydroisobenzofuran-4-yl)propanoic acid] | 94.9 |
